Patent publication US20220268782A1, “METHODS FOR PREDICTING AND TREATING CARDIAC DYSFUNCTION” (INSERM (INSTITUT NATIONAL DE LA SANTÉ EAT DE LA RECHERCHE …, priority 2019, published 2022)

Experiments:
[1] = test system: Myocardial nitric oxide synthase (NOS); assay: Myocardial nitric oxide synthase activity in hearts of BH4-treated mice; assay type: in vivo; details: hearts of 12.5-month-old WT mice treated with BH4 or vehicle, FIG. 4i
Protocol: Myocardial nitric oxide synthase (NOS) activity was determined in hearts of 12.5-month-old WT mice treated with BH4 or vehicle using a commercial kit (Biovision). Briefly, pulverized heart aliquots were processed according to the manufacturer's instructions and fluorometric readouts (excitation: 360, emission: 450) were normalised to protein concentration determined by Bradford assay. Activity of recombinant NOS protein served as positive control.

11 month-old WT mice = assay: In vivo intraperitoneal BH4 treatment of 11-month-old WT mice: cardiac phenotyping, plasma and hepatic PA
Protocol: PA in a dose of 200 mg/kg twice a day or vehicle (1×PBS) was subcutaneously administered to 11 month-old WT mice (Janvier Labs, France) in vivo for a month. BH4 in a dose of 10 mg/kg/die 2×/die or vehicle (1×PBS with 10 mM sodium ascorbate and citric acid to pH 4.5) was intraperitoneally administered to 11 month-old WT mice in vivo over six weeks. General state of the mice (body weight & wellbeing) was closely monitored.
(§1) Data acquisition for a single cohort was performed by a single operator (JT or ER). Images were acquired from a parasternal position at the level of the papillary muscles using a 13-MHz linear-array transducer with a digital ultrasound system (Vivid 7, GE Medical System, Horton, Norway). Left ventricular dimensions and ejection fraction, anterior and posterior wall thicknesses were serially obtained from M-mode acquisition. Relative LV wall thickness (RWT) was defined as the sum of septal and posterior wall thickness over LV end-diastolic diameter, and LV mass was determined using the uncorrected cube assumption formula (LV mass=(AWTd+LVEDD+PWTd)^3−(LVEDD)^3). Peak systolic values of radial strain rate of the anterior and posterior wall were obtained using Tissue Doppler Imaging (TDI) as previously described.^2 TDI loops were acquired from parasternal view with a careful alignment with the radial component of the deformation' at a mean frame rate of 514 fps and a depth of 1 cm. The Nyquist velocity limit was set at 12 cm/s. Radial strain rate analysis was performed offline using the EchoPac Software (GE Medical Systems) blindly by a single operator (GD). Peak systolic of radial strain rate was computed from a region of interest positioned in the mid anterior wall and was measured over an axial distance of 0.6 mm. The temporal smoothing filters were turned off for all measurements. Because of the inevitable respiratory variability, we averaged peak systolic of radial strain rate on 8 consecutive cardiac cycles.
(§2) In vivo haemodynamic measurements were performed just before mice of indicated ages were sacrificed.' Haemodynamic evaluation was performed in mice placed on a homeothermic operating table in supine position under 1.5% isoflurane anesthesia with spontaneous breathing. A 1.4-Fr microcatheter (Millar Instruments, Houston, USA) was calibrated manually before each experiment, inserted via the right carotid artery into the aorta and subsequently advanced to the left ventricle. Data were collected after at least 10 min of baseline, using the lowest isoflurane concentration tolerated to ensure minimal cardiodepression during measurement of peak rates of isovolumetric pressure development (dP/dtmax) and pressure decay (dP/dtmin). The microcatheter was then withdrawn to the aorta for measurement of systolic and diastolic pressure. Data were analyzed using the IOX software (EMKA, France).
(§3) All mice were weighed, euthanized by cervical dislocation, followed by rapid excision of the organs of interest. The heart was cannulated through the aorta for perfusion with ice-cold 1×PBS, then blotted and weighed. The heart was cut in half perpendicular to its axis: the apical two-third was snap-frozen in liquid nitrogen, whilst the basic one-third was recannulated through the aorta, perfused with 10% formalin for histology. Hearts were kept in formalin at 4° C. for at least 24-48 hours before embedding. Snap-frozen tissues were kept at −80° C., until they were powdered using a mortar and pestle cooled with liquid nitrogen and collected as aliquots. Livers and kidneys were processed in a similar manner.
Formalin-fixed organs were embedded in paraffin. Cross-sections were cut into 7 μm thickness using a rotary microtome (Leica). To assess cardiac fibrosis, Sirius red staining was performed, followed by dehydration and mounting with Eukitt quick-hardening mounting medium (Sigma). […]

WT mice = assay: In vivo subcutaneous PA treatment of WT mice: cardiac phenotyping
Protocol: […] […] General state of the mice (body weight & wellbeing) was closely monitored.
as §1, §2, §3
Formalin-fixed organs were embedded in paraffin. Cross-sections were cut into 7 μm thickness using a rotary microtome (Leica). To assess cardiac fibrosis, Sirius red staining was performed, followed by dehydration and mounting with Eukitt quick-hardening mounting medium (Sigma). To visualise cardiomyocyte hypertrophy, sections were incubated in 2 μg/mL Texas red-conjugated wheat germ agglutinin (WGA; Invitrogen) in 1×PBS at room temperature for 45 minutes. Slides were then mounted with fluorescent mounting media (Abcam). Images were acquired using a Zeiss fluorescent microscope. Whole-mount preparations were made of hearts and livers of 2- and 15-month-old p21-mCherry reporter mice. […]

[2] = older group (11 month-old at start), PA 200 mg/kg twice a day, one month

CC(O)C(O)C1CNc2nc(N)[nH]c(=O)c2N1 (stereo not drawn) [BH4, 2-amino-6-(1,2-dihydroxypropyl)-5,6,7,8-tetrahydro-3H-pteridin-4-one]
myocardial nitric oxide synthase activity [1]: without altering | plasma PA (11 month-old WT mice; 11-month-old WT mice, BH4 10 mg/kg i.p. twice a day over 6 weeks, FIG. 4a): reduce plasma PA to young levels | systemic arterial pressures (11 month-old WT mice; 11-month-old WT mice, BH4 10 mg/kg i.p. twice a day over 6 weeks, FIG. 4f): without lowering | interstitial fibrosis (Sirius red, vimentin) (11 month-old WT mice; 11-month-old WT mice, BH4 10 mg/kg i.p. twice a day over 6 weeks, FIG. 4g-h): normalised | senescent myocardial expression of p21, Pah, Gch1 & 2-SC (11 month-old WT mice; 11-month-old WT mice, BH4 10 mg/kg i.p. twice a day over 6 weeks, FIG. 4j): suppressing | HW/TL (heart weight to tibia length) (11 month-old WT mice; 11-month-old WT mice, BH4 10 mg/kg i.p. twice a day over 6 weeks, to young values, FIG. 4b): ameliorated | contractility (systolic strain rate, dP/dtmax) (11 month-old WT mice; 11-month-old WT mice, BH4 10 mg/kg i.p. twice a day over 6 weeks, to young values, FIG. 4c-d): ameliorated | relaxation (dP/dtmin) (11 month-old WT mice; 11-month-old WT mice, BH4 10 mg/kg i.p. twice a day over 6 weeks, to young values, FIG. 4e): ameliorated | Pah in liver (immunofluorescence) (11 month-old WT mice; 12.5-month-old WT mice, BH4 vs. vehicle, FIG. 4s): re-expressed | hepatic PA content (11 month-old WT mice; 12.5-month-old WT mice, BH4 vs. vehicle, FIG. 4t): reduced | course of drug treatment (body weight & wellbeing monitored) (11 month-old WT mice; BH4 10 mg/kg twice a day intraperitoneally over six weeks): completed as scheduled without incidents | hepatic Pah activity (11 month-old WT mice; BH4-treated WT mice, data not shown): improved

N[C@@H](Cc1ccccc1)C(=O)O [PA, (S)-2-Amino-3-phenylpropanoic acid]
course of drug treatment (body weight & wellbeing monitored) (WT mice; PA 200 mg/kg twice a day subcutaneously for a month): completed as scheduled without incidents | LV ejection fraction (WT mice; PA 200 mg/kg twice a day, one month, FIG. 3h): unaltered | Plasma PA levels (WT mice; WT mice 5 vs. 11 month-old at start, PA 200 mg/kg twice a day over one month): increased in both age-groups, but were considerably higher in older animals | tolerability / weight loss (WT mice; WT mice, PA 200 mg/kg twice a day over one month, data not shown): tolerated PA treatment well without significant weight loss | hepatic PA levels (WT mice; livers of PA-treated 6-month-old WT mice vs. 12-month-old WT mice, FIG. 4m): comparable | cardiac hypertrophy (HW/TL) (WT mice; [2]): no change | cardiomyocyte size (cross-sectional area) (WT mice; [2]): no change | myocardial interstitial fibrosis (Sirius red) (WT mice; [2]): no change | cardiac hypertrophy (HW/TL) (WT mice; young animals (5 month-old at start), PA 200 mg/kg twice a day, one month, FIG. 3c): increase | cardiomyocyte size (cross-sectional area) (WT mice; young animals, PA 200 mg/kg twice a day, one month, FIG. 3e): increase | myocardial interstitial fibrosis (Sirius red) (WT mice; young animals, PA 200 mg/kg twice a day, one month, FIG. 3f): increase | systolic strain rate (WT mice; young group, PA 200 mg/kg twice a day, one month, FIG. 3i): reduced | dP/dtmax (WT mice; young group, PA 200 mg/kg twice a day, one month, FIG. 3j): reduced | dP/dtmin (WT mice; young group, PA 200 mg/kg twice a day, one month, FIG. 3k): reduced | myocardial senescence: p21, Pah, Gch1, 2-SC and 4-HNE (WT mice; young hearts, PA 200 mg/kg twice a day, one month, FIG. 3l): upregulation
